Measured values taken from publication PMC5253357, “Racemic Salsolinol and its Enantiomers Act as Agonists of the μ-Opioid Receptor by Activating the Gi Protein-Adenylate Cyclase Pathway” (Frontiers in Behavioral Neuroscience, 2017).
“Also recorded” adds a separate entry of the source.

Tests used:
[1] = biological target: T1, human μ-opioid receptor (Homo sapiens, UniProt P35372); assay: cell-based; settings: CHO-K1 cells, forskolin 20 μM, 30 min incubation; read-out: EC50, activation of μ-opioid receptor (reduction of intracellular cAMP)
T1 construct: host or cells: CHO-K1
T1 sequence (P35372 whole entry): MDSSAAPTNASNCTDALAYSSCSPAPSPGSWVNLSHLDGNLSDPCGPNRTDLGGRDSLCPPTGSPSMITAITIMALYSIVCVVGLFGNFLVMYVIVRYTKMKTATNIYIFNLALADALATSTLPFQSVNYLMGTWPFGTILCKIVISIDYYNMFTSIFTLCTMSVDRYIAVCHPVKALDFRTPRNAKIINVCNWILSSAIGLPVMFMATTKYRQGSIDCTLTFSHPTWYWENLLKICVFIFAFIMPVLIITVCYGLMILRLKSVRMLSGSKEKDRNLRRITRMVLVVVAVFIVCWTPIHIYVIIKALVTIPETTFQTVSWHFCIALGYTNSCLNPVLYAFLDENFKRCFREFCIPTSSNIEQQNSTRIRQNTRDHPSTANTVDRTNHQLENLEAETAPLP
From the text: The intrinsic activity of the ligands was studied using commercially cell-based assays, composed by recombinant CHO-K1 cells that overexpress only the human μ-opioid receptor, detecting the levels of second messengers that reflect the activation of this receptor. To assess the activation of the μ-opioid receptor through the recruitment of G protein signaling pathway, we used the cyclic adenosine monophosphate (cAMP) Hunter® eXpress G protein-coupled receptor (GPCR) Assay (DiscoverX, Freemont, CA, USA) following the manufacturer instructions. In this system, the endogenous cAMP competes with an exogenous cAMP coupled to a truncated β-galactosidase fragment (provided by the assay) for binding to a cAMP antibody. Only the unbound exogenous cAMP-β-galactosidase fragment binds to a complementary β-galactosidase fragment to form the active enzyme. […] Control cells were incubated only with forskolin. The resulting luminescence was measured with a microplate reader Synergy HT (Biotek, Winooski, VT, USA) or a microplate reader SpectraMax M3 (Molecular Devices, Sunnyvale, CA, USA).
(§1) The fitting of the data to the correlation was assessed by its corresponding coefficient of determination (R^2), using GraphPad Prism (San Diego, CA, USA).

[2] = biological target: T1, human μ-opioid receptor; assay type: cell-based; settings: all tested concentrations; listed as racemic SAL
From the text: To assess the activation of the μ-opioid receptor through the recruitment of the β-arrestin signaling pathway, we used a PathHunter® eXpress β-Arrestin GPCR chemiluminescent assay (DiscoverX) following the manufacturer instructions. In this system, the human μ-opioid receptor is fused to a small fragment of β-galactosidase (PK) and co-expressed in cells expressing a fusion protein of β-arrestin and the complementary fragment of β-galactosidase (EA). Activation of the μ-opioid receptor stimulates binding of β-arrestin to the PK-tagged receptor allowing the complementation of the two enzyme fragments of β-galactosidase. This action leads to an activation of the enzyme that can be measured using a chemiluminescent reagent resulting in luminescence, which is proportional to the recruitment of β-arrestin. […] The resulting luminescence was determined with a microplate reader Synergy HT (Biotek).
as §1

[3] = biological target: μ-opioid receptor; parameters: method as in Lucchi et al., 1982; settings: rat striatum; ref Lucchi et al., 1982; read-out: IC50, displacement of [met]-enkephalin; cited from earlier work

| SMILES | EC50 [1] [µM] | Activation of β-arrestin signaling pathway (in words) [2] | IC50 [3] [µM] |
| --- | --- | --- | --- |
| C[C@@H]1NCCc2cc(O)c(O)cc21 [(S)-SAL] | 9 |  |  |
| C[C@H]1NCCc2cc(O)c(O)cc21 [(R)-SAL] | 600 |  |  |
| CC1NCCc2cc(O)c(O)cc21 (racemic) [(R/S)-SAL, 1-methyl-1,2,3,4-tetrahydro-6,7-dihydroxy-isoquinoline] | 20 | did not promote the recruitment of β-arrestin; also recorded: unable to activate the β-arrestin signaling pathway; also recorded: does not induce the recruitment of β-arrestin | 10 |
